# Measured values published in PubChem BioAssay AID1963837 (Molecular Pharmacology Branch, DTP, NCI, 2024).
# Tested on: 843126-344-R-J1-PDC complex spheroid viability
# Experiment: Anticancer human tumor 843126-344-R-J1-PDC patient-derived melanoma cell line growth inhibition [POLQ]
# Conditions: for IC50: curve of first compound; for viability, T/C: stronger effect = lower value
# In short: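 Growth inhibition in 3D: complex spheroids (tumor PDC, HUVEC, MSC) treated with POLQ inhibitor combinations; where Cmax unknown, highest tested concentration 10 microM, except SN-38 at 1 microM.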
# [1] = second compound 0.0316 µM, first compound 0.00316 µM
# [2] = second compound 0.0316 µM, first compound 0.01 µM
# [3] = second compound 0.0316 µM, first compound 0.0316 µM
# [4] = second compound 0.0316 µM, first compound 0.1 µM
# [5] = second compound 0.1 µM, first compound 0.00316 µM
# [6] = second compound 0.1 µM, first compound 0.01 µM
# [7] = second compound 0.1 µM, first compound 0.0316 µM
# [8] = second compound 0.1 µM, first compound 0.1 µM
# [9] = second compound 0.316 µM, first compound 0.00316 µM
# [10] = second compound 0.316 µM, first compound 0.01 µM
# [11] = second compound 0.316 µM, first compound 0.0316 µM
# [12] = second compound 0.316 µM, first compound 0.1 µM
# [13] = second compound 1 µM, first compound 0.00316 µM
# [14] = second compound 1 µM, first compound 0.01 µM
# [15] = second compound 1 µM, first compound 0.0316 µM
# [16] = second compound 1 µM, first compound 0.1 µM
# [17] = second compound 3.16 µM, first compound 0.00316 µM
# [18] = second compound 3.16 µM, first compound 0.01 µM
# [19] = second compound 3.16 µM, first compound 0.0316 µM
# [20] = second compound 3.16 µM, first compound 0.1 µM
# [21] = second compound 10 µM, first compound 0.00316 µM
# [22] = second compound 10 µM, first compound 0.01 µM
# [23] = second compound 10 µM, first compound 0.0316 µM
# [24] = second compound 10 µM, first compound 0.1 µM
# 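Throughout, for viability, T/C: spheroids exposed to drugs for seven days before readout.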
compound,measurement,setting,value
Cn1ncnc1[C@H]1c2n[nH]c(=O)c3cc(F)cc(c23)N[C@@H]1c1ccc(F)cc1 + Nc1ccc(C#CCN(C(=O)Cc2ncc(C(F)(F)F)cc2C(F)(F)F)c2ccc(F)cc2)nn1,IC50,second compound 0.0316 µM,> 100 nM
same,IC50,second compound 0.1 µM,> 100 nM
same,IC50,second compound 0.316 µM,> 100 nM
same,IC50,second compound 1 µM,> 100 nM
same,IC50,second compound 3.16 µM,> 100 nM
same,IC50,second compound 10 µM,> 100 nM
same,"viability, T/C","second compound 0.0316 µM, first compound 0.000316 µM",87.1%
same,"viability, T/C","second compound 0.0316 µM, first compound 0.001 µM",93.9%
same,"viability, T/C",[1],101%
same,"viability, T/C",[2],93.4%
same,"viability, T/C",[3],96.1%
same,"viability, T/C",[4],82.6%
same,"viability, T/C","second compound 0.1 µM, first compound 0.000316 µM",89%
same,"viability, T/C","second compound 0.1 µM, first compound 0.001 µM",91.7%
same,"viability, T/C",[5],107%
same,"viability, T/C",[6],96.2%
same,"viability, T/C",[7],99.7%
same,"viability, T/C",[8],97.7%
same,"viability, T/C","second compound 0.316 µM, first compound 0.000316 µM",108%
same,"viability, T/C","second compound 0.316 µM, first compound 0.001 µM",93.3%
same,"viability, T/C",[9],111%
same,"viability, T/C",[10],93.2%
same,"viability, T/C",[11],99.8%
same,"viability, T/C",[12],99.8%
same,"viability, T/C","second compound 1 µM, first compound 0.000316 µM",97.3%
same,"viability, T/C","second compound 1 µM, first compound 0.001 µM",102%
same,"viability, T/C",[13],87.9%
same,"viability, T/C",[14],106%
same,"viability, T/C",[15],104%
same,"viability, T/C",[16],73.1%
same,"viability, T/C","second compound 3.16 µM, first compound 0.000316 µM",93.3%
same,"viability, T/C","second compound 3.16 µM, first compound 0.001 µM",102%
same,"viability, T/C",[17],88%
same,"viability, T/C",[18],95.7%
same,"viability, T/C",[19],102%
same,"viability, T/C",[20],94.8%
same,"viability, T/C","second compound 10 µM, first compound 0.000316 µM",101%
same,"viability, T/C","second compound 10 µM, first compound 0.001 µM",83.6%
same,"viability, T/C",[21],97%
same,"viability, T/C",[22],89.5%
same,"viability, T/C",[23],88.6%
same,"viability, T/C",[24],80.2%
COc1cccc(OCCCN)c1-c1cc(Nc2cnc(C#N)cn2)n[nH]1 + COC1C(OC(N)=O)C(O)C(Oc2ccc3c(O)c(NC(=O)c4ccc(O)c(CC=C(C)C)c4)c(=O)oc3c2C)OC1(C)C,IC50,second compound 0.0316 µM,87.1 nM
same,IC50,second compound 0.1 µM,156 nM
same,IC50,second compound 0.316 µM,135 nM
same,IC50,second compound 1 µM,347 nM
same,IC50,second compound 3.16 µM,290 nM
same,IC50,second compound 10 µM,153 nM
same,"viability, T/C",[1],78.6%
same,"viability, T/C",[2],85.6%
same,"viability, T/C",[3],77.7%
same,"viability, T/C",[4],45.8%
same,"viability, T/C","second compound 0.0316 µM, first compound 0.316 µM",46.3%
same,"viability, T/C","second compound 0.0316 µM, first compound 1 µM",31.8%
same,"viability, T/C",[5],93.3%
same,"viability, T/C",[6],81.8%
same,"viability, T/C",[7],73.2%
same,"viability, T/C",[8],52%
same,"viability, T/C","second compound 0.1 µM, first compound 0.316 µM",44.1%
same,"viability, T/C","second compound 0.1 µM, first compound 1 µM",34.7%
same,"viability, T/C",[9],79.9%
same,"viability, T/C",[10],76.8%
same,"viability, T/C",[11],65.3%
same,"viability, T/C",[12],54.9%
same,"viability, T/C","second compound 0.316 µM, first compound 0.316 µM",39.8%
same,"viability, T/C","second compound 0.316 µM, first compound 1 µM",38.6%
same,"viability, T/C",[13],96%
same,"viability, T/C",[14],76.9%
same,"viability, T/C",[15],76%
same,"viability, T/C",[16],64.7%
same,"viability, T/C","second compound 1 µM, first compound 0.316 µM",52%
same,"viability, T/C","second compound 1 µM, first compound 1 µM",36.6%
same,"viability, T/C",[17],88.6%
same,"viability, T/C",[18],85.2%
same,"viability, T/C",[19],65.3%
same,"viability, T/C",[20],68.2%
same,"viability, T/C","second compound 3.16 µM, first compound 0.316 µM",49.4%
same,"viability, T/C","second compound 3.16 µM, first compound 1 µM",31.8%
same,"viability, T/C",[21],72.7%
same,"viability, T/C",[22],76.2%
same,"viability, T/C",[23],70.2%
same,"viability, T/C",[24],55.5%
same,"viability, T/C","second compound 10 µM, first compound 0.316 µM",40.8%
same,"viability, T/C","second compound 10 µM, first compound 1 µM",37.2%
